These results are taken from US20090215752A1, “Compounds, preparation and therapeutic use thereof” (priority 2005, published 2009).

In one assay the target is T1, PDE2 (Homo sapiens, UniProt O00408).
T1 construct: PDE2 was isolated from human platelets, provided by Etablissement Français du Sang-Alsace; tissue Etablissement Français du Sang-Alsace; host or cells: human platelets
The experiment in a line: Inhibition of PDE2 (radioenzymatic phosphodiesterase assay). The note with it: 10 μM compound, 1 μM cyclic AMP. In kind it is biochemical. The protocol:
2.1.1. Isolation of Phosphodiesterases from Smooth Muscle A 3 g segment of bovine aortic media cut into pieces with scissors was homogenized with an ultra-turrax then a potter glass/glass homogenizer in 7 volumes by weight of buffer A containing a protease inhibitor cocktail (20 mM Tris-HCl, 0.25 M saccharose, 2 mM magnesium acetate, 1 mM dithiothreitol, 5 mM EGTA, 2000 U/ml aprotinin, 10 mg/l leupeptin and 10 mg/l soya trypsic inhibitor). The homogenizate was centrifuged at 105,000 g for 1 hour. The supernatant was loaded on a DEAE-Sephacel column (15×1.6 cm) pre-equilibrated with buffer B (buffer A without the saccharose, EGTA and protease inhibitors). The column was washed until there was no detectable absorption at 280 nm, then eluted with a linear gradient of NaCl (0-0.5 M) in buffer B. 3-ml fractions were collected and enzyme activity was determined under the conditions described hereinbelow to localize the different enzymes PDE1, PDE3, PDE4 and PDE5 which were aliquoted and frozen at −80° C. (Lugnier et al., Biochem. Phamacol., 1986, 35: 1746-1751). PDE2 was isolated from human platelets, provided by Etablissement Français du Sang-Alsace, according to Kameni Tcheudji J F et al., (J. Mol. Biol. 2001; 310: 181-791), and stored until use at −80° C. in small aliquots.
Cyclic nucleotide phosphodiesterase activity was determined by a radioenzymatic method using tritium-labelled cyclic GMP or AMP (1 μM) as substrate (Lugnier et al., 1986). ^3H-labelled adenosine or guanosine monophosphate formed by hydrolysis of the radiolabelled cyclic nucleotide was then converted to ^3H-labelled adenosine or guanosine in a second reaction with […] in excess. The nucleoside formed was separated from the nucleotides by anion exchange chromatography. Nucleoside radioactivity was determined by liquid scintillation counting. Enzymatic incubations were carried out under conditions allowing no more than 15% hydrolysis of the substrate; each point was performed in duplicate.
The concentration of substance which inhibits enzymatic activity by 50% (IC50) at 1 μM cyclic AMP was calculated by nonlinear regression from the experimental values of hydrolysis rate (Prism, GraphPad).

In the next assay the test system is σ receptors. Put plainly: Isolated organ bioassay, field-stimulated vas deferens: test for agonist activity. Set-up: species or system guinea pig. The protocol:
Segments of guinea pig vas deferens were suspended in 20-ml organ baths containing an oxygenated (95% O2 and 5% CO2) and pre-warmed (37° C.) physiological salt solution of the following composition (in mM): NaCl 118.0, KCl 4.7, MgSO4 1.2, CaCl2 2.5, KH2PO4 1.2, NaHCO3 25.0 and glucose 11.0 (pH 7.4). Yohimbine (1 μM), (−) sulpiride (1 μM), atropine (1 μM) and naloxone (1 μM) were also present throughout the experiments to block the α2-adrenergic, dopamine D2, muscarinic and opioid receptors, respectively. The tissues were connected to force transducers for isometric tension recordings. They were stretched to a resting tension of 0.5 g, allowed to equilibrate for at least 30 min during which time they were washed repeatedly and the tension readjusted. Thereafter, they were stimulated electrically using a constant current stimulator.
The tissues were exposed to a submaximal concentration of the reference agonist (+) SKF-10047 (100 μM) to verify responsiveness and to obtain a control response. Following washings and recovery of the twitch contraction amplitude, the tissues were exposed to increasing concentrations of substance or the same agonist. The different concentrations were added cumulatively and each was left in contact with the tissues until a stable response was obtained or for a maximum of 15 min. If an agonist-like response (enhancement of twitch contractions) was obtained, the reference antagonist rimcazole (10 μM) was tested against the highest concentration of substance to confirm the involvement of the σ receptors in this response.
The parameter measured was the maximum change in the twitch contraction amplitude induced by each compound concentration. The results are expressed as a percent variation of the control twitch contraction amplitude (mean values). The effects of substance tested at 1.0 10^−6 M, 3.0 10^−6 M and 1.0 10^−5 M for agonist and antagonist activities at the σ receptors in the guinea pig vas deferens bioassay are summarized in Tables 6-7 where those of the reference compounds are also reported.

Setting [1] is: read-out: PDE2 percentage inhibition at 10 μM, Table 1.
Where [2] appears, read: Table 1, read-out: PDE2 percentage inhibition at 10 μM.

Where two headings read alike, the source gives them in different places.

T1 sequence (O00408 whole entry): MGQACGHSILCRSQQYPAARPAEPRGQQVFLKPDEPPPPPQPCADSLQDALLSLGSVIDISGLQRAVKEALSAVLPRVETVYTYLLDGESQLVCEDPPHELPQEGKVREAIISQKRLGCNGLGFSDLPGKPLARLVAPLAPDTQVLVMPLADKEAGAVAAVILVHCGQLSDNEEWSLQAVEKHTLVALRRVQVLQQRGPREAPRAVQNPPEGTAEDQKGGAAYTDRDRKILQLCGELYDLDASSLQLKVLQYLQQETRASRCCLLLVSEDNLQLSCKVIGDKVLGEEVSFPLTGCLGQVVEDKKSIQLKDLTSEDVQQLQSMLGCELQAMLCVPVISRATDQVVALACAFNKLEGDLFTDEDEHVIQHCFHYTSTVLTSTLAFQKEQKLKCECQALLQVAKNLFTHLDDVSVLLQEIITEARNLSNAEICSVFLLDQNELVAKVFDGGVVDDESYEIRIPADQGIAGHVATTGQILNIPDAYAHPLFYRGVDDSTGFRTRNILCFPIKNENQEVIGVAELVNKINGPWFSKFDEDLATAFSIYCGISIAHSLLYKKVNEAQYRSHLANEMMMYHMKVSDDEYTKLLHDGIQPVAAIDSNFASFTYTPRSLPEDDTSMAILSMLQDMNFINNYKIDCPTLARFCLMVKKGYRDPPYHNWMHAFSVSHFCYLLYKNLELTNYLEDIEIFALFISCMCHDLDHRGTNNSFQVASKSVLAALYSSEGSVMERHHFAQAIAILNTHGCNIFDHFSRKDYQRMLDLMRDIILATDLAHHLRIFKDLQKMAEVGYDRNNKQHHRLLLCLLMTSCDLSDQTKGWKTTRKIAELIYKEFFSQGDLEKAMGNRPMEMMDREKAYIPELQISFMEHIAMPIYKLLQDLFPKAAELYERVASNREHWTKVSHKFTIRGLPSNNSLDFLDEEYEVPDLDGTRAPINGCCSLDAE

On to `COc1cc2c(c(OC)c1-c1ccccc1)C(c1cccc(C(N)=O)c1)=NCC(=O)N2Cc1ccccc1` [Compound 24, 3-(1-Benzyl-6,8-dimethoxy-2-oxo-7-phenyl-2,3-dihydro-1H-benzo[e][1,4]diazepin-5-yl)-benzamide], for which, on PDE2 (setting [1]), the inhibition at 10 µM turned out to be 18%.
Turning to `COc1cc2c(c(OC)c1-c1ccccc1)C(c1cccc(C(N)=O)c1)=NCC(=O)N2CC1CC1` [Compound 23, 3-(1-Cyclopropylmethyl-6,8-dimethoxy-2-oxo-7-phenyl-2,3-dihydro-1H-benzo[e][1,4]diazepin-5-yl)-benzamide], at PDE2 (setting [1]), the inhibition at 10 µM turned out to be 15%.
Consider `COc1cc2c(c(OC)c1-c1ccccc1)C(c1cccc(C(N)=O)c1)=NCC(=O)N2Cc1ccc(C(F)(F)F)cc1` [Compound 25, 3-[6,8-Dimethoxy-2-oxo-7-phenyl-1-(4-trifluoromethyl-benzyl)-2,3-dihydro-1H-benzo[e][1,4]diazepin-5-yl]-benzamide], for which, at PDE2 (setting [1]), the inhibition at 10 µM is 18%.
Take `CCN1C(=O)CN=C(c2cccc(C#N)c2)c2c1cc(OC)c(-c1ccccc1)c2OC` [Compound 11, 3-(6,8-Dimethoxy-2-oxo-7-phenyl-1-ethyl-2,3-dihydro-1H-benzo[e][1,4]diazepin-5-yl)-benzonitrile]: the inhibition at 10 µM at PDE2 (setting [1]) amounted to 10%.
For the compound `COc1cc2c(c(OC)c1-c1cccnc1)C(c1cccc(C#N)c1)=NCC(=O)N2` [Compound 4], at PDE2 (Table 1), the “PDE2 percentage inhibition at 10 μM” value turned out to be 4%.
With `COc1cc2c(c(OC)c1-c1ccccc1)C(c1cccc(C#N)c1)=NCC(=O)N2Cc1ccccc1` [Compound 14, 3-(1-Benzyl-6,8-dimethoxy-2-oxo-7-phenyl-2,3-dihydro-1H-benzo[e][1,4]diazepin-5-yl)-benzonitrile], at PDE2 (setting [1]), the inhibition at 10 µM turned out to be 9%.
With `COCC#Cc1cccc(C2=NCC(=O)N(C)c3cc(OC)c(-c4ccccc4)c(OC)c32)c1` [Compound 27, 6,8-Dimethoxy-5-[3-(3-methoxy-prop-1-ynyl)-phenyl]-1-methyl-7-phenyl-1,3-dihydro-benzo[e][1,4]diazepin-2-one], the inhibition at 10 µM on PDE2 (setting [1]) came to 83%.
Take `COc1cc2c(c(OC)c1-c1ccccc1)C(c1cccc(C(N)=O)c1)=NCC(=O)N2CCCc1ccccc1` [Compound 26, 3-[6,8-Dimethoxy-2-oxo-7-phenyl-1-(3-Phenyl-propyl)-2,3-dihydro-1H-benzo[e][1,4]diazepin-5-yl]-benzamide]: the inhibition at 10 µM on PDE2 (setting [1]) was determined as 5%.
Still for that read-out and setting: the result for `COc1cc2c(c(OC)c1-c1ccccc1)C(c1cccc(CCCN)c1)=NCC(=O)N2C` [Compound 32, 5-[3-(3-Amino-propyl)-phenyl]-6,8-dimethoxy-1-methyl-7-phenyl-1,3-dihydro-benzo[e][1,4]diazepin-2-one] reads 22%.
Take `COc1cc2c(c(OC)c1-c1ccccc1)C(c1cccc(C#N)c1)=NCC(=O)N2CCCc1ccccc1` [Compound 16, 3-[6,8-Dimethoxy-2-oxo-7-phenyl-1-(3-phenyl-propyl)-2,3-dihydro-1H-benzo[e][1,4]diazepin-5-yl]-benzonitrile]: on PDE2 (setting [1]), the inhibition at 10 µM was determined as 18%.
`COc1cc2c(c(OC)c1-c1ccccc1)C(c1cccc(C#N)c1)=NCC(=O)N2Cc1ccc(C(F)(F)F)cc1` [Compound 15, 3-[6,8-Dimethoxy-2-oxo-7-phenyl-1-(4-trifluoromethyl-benzyl)-2,3-dihydro-1H-benzo[e][1,4]diazepin-5-yl]-benzonitrile]: the inhibition at 10 µM on PDE2 (setting [1]) stood at 9%.
Consider `CCCN1C(=O)CN=C(c2cccc(C(N)=O)c2)c2c1cc(OC)c(-c1ccccc1)c2OC` [Compound 22, 3-(6,8-Dimethoxy-2-oxo-7-phenyl-1-propyl-2,3-dihydro-1H-benzo[e][1,4]diazepin-5-yl)-benzamide], for which the inhibition at 10 µM at PDE2 (setting [1]) was determined as 16%.
Take `COc1cc2c(c(OC)c1-c1ccccc1)C(c1ccccc1)=NCC(=O)N2` [Compound 3, 6,8-Dimethoxy-5,7-diphenyl-1,3-dihydro-benzo[e][1,4]diazepin-2-one]: the inhibition at 10 µM at PDE2 (setting [2]) was found to be 25%.
For the compound (+)SKF-10,047, the “Response to the compound, variation of twitch contraction amplitude” value was “+158%” in the assay on σ receptors (1.0 10^−4 M, mean, n=2); “+40%” with σ receptors (1.0 10^−5 M, mean, n=2); “+90%” in the assay on σ receptors (3.0 10^−5 M, mean, n=2). Moreover, the “Effect on twitch contraction amplitude (in words)” value in the assay on σ receptors (field-stimulated guinea pig vas deferens) is “concentration-dependent enhancement of the twitch contraction amplitude”. The “Response to the highest concentration of the compound +Rimcazole (1.0 10^−5 M)” value with σ receptors (highest compound concentration plus rimcazole 1.0 10^−5 M, mean, n=2) is reported as −8%.
As to `CCN1C(=O)CN=C(c2cccc(C(N)=O)c2)c2c1cc(OC)c(-c1ccccc1)c2OC` [Compound 21, 3-(6,8-Dimethoxy-2-oxo-7-phenyl-1-ethyl-2,3-dihydro-1H-benzo[e][1,4]diazepin-5-yl)-benzamide], the inhibition at 10 µM on PDE2 (setting [1]) worked out at 31%.
Same read-out and setting: the figure for `COc1cc2c(c(OC)c1-c1ccccc1)C(c1cccc(C#CCNC(=O)OC(C)(C)C)c1)=NCC(=O)N2C` [Compound 28, {3-[3-(6,8-Dimethoxy-1-methyl-2-oxo-7-phenyl-2,3-dihydro-1H-benzo[e][1,4]diazepin-5-yl)-phenyl]-prop-2-ynyl}-carbamic acid tert-butyl ester] is 43%.
Consider `COc1cc2c(c(OC)c1-c1ccccc1)C(c1cccc(Br)c1)=NCC(=O)N2C` [Compound 10, 5-(3-Bromo-phenyl)-6,8-dimethoxy-1-methyl-7-phenyl-1,3-dihydro-benzo[e][1,4]diazepin-2-one], for which, on PDE2 (setting [2]), the inhibition at 10 µM was determined as 86%.
For the compound `COc1cc2c(c(OC)c1-c1cccnc1)C(c1cccc(C(N)=O)c1)=NCC(=O)N2` [Compound 19, 3-(6,8-Dimethoxy-2-oxo-7-pyridin-3-yl-2,3-dihydro-1H-benzo[e][1,4]diazepin-5-yl)-benzamide], on PDE2 (Table 1), the “PDE2 percentage inhibition at 10 μM” value was determined as 27%.
With `COc1cc2c(c(OC)c1-c1ccccc1)C(c1cccc(C#N)c1)=NCC(=O)N2CC1CC1` [Compound 13, 3-(1-Cyclopropylmethyl-6,8-dimethoxy-2-oxo-7-phenyl-2,3-dihydro-1H-benzo[e][1,4]diazepin-5-yl)-benzonitrile], the inhibition at 10 µM at PDE2 (setting [1]) is 20%.
As to `COc1cc2c(c(OC)c1-c1ccccc1)C(c1cccc(C#CCNC(=O)OC(C)(C)C)c1)=NCC(=O)N2C` [Compound 30, {3-[3-(6,8-Dimethoxy-1-methyl-2-oxo-7-phenyl-2,3-dihydro-1-benzo[e][1,4]diazepin-5-yl)-phenyl]-prop-2-ynyl}-carbamic acid tert-butyl ester], the “PDE2 percentage inhibition at 10 μM” value at PDE2 (Table 1) stood at 69%.
On to `CCCN1C(=O)CN=C(c2cccc(C#N)c2)c2c1cc(OC)c(-c1ccccc1)c2OC` [Compound 12, 3-(6,8-Dimethoxy-2-oxo-7-phenyl-1-propyl-2,3-dihydro-1H-benzo[e][1,4]diazepin-5-yl)-benzonitrile], for which the inhibition at 10 µM at PDE2 (setting [1]) came to 17%.
As to `COc1cc2c(c(OC)c1-c1ccccc1)C(c1cccc(C#CCN)c1)=NCC(=O)N2C` [Compound 31, 5-[3-(3-Amino-prop-1-ynyl)-phenyl]6,8-dimethoxy-1-methyl-7-phenyl-1,3-dihydro-benzo[e][1,4]diazepin-2-one], the inhibition at 10 µM at PDE2 (setting [1]) was 42%.
